Where a name gives a salt, the structure may show the parent alone. Read-outs that look alike come from different tables or passages of the source.
System: murine neural precursor cells (neurosphere cultures)
Assay: HTS of LOPAC library against secondary neurosphere cultures, MTT proliferation assay at 3 μM, day 7 (z score, P value)
Format: cell-based, mouse
[1] = LOPAC primary screen, neurosphere MTT proliferation, 3 μM, day 7
[2] = yes/no: significantly inhibited neurosphere proliferation in primary screen
[3] = LOPAC library screen at 3 μM, secondary neurosphere cultures, MTT
[4] = yes/no: significantly inhibited neurosphere proliferation (P<0.01) in primary screen
[5] = primary LOPAC screen, 3 μM, MTT, neurosphere proliferation
[6] = yes/no: significantly inhibited neurosphere proliferation in the primary screen
[7] = yes/no: significantly inhibited neurosphere proliferation (P<0.01) in the primary screen
[8] = LOPAC screen, neurosphere MTT proliferation, 3 μM, day 7
[9] = LOPAC library screen, 3 μM, MTT, secondary neurosphere cultures, day 7
[10] = yes = significantly inhibited neurosphere proliferation (P<0.01) in the primary screen
[11] = LOPAC library screen, 3 μM, MTT, neurosphere cultures

With `N#CC(C#N)=Cc1cc(O)c(O)c(O)c1` [Tyrphostin 25] the “Z Score” value was −0.2591, the Z score [1] was −0.259 and the Activity [2] was “no”.

For `O=C1Nc2ccccc2/C1=C1/Nc2ccccc2/C1=N\O` [Indirubin-3′-oxime], the “Z Score” value [3] was −0.3965, the Z score [1] was −0.397 and the Activity [4] was “no”.

With `N[C@@H](Cc1ccc(O)c(O)c1)C(=O)O` [L-3,4-Dihydroxyphenylalanine] the “Z Score” value (168 h, 3 µM) was 2.44, the Z score (168 h, 3 µM) was 2.440 and the Activity [4] was “no”.

For `S=C([S-])OC1CC2CC1C1CCCC21.[K+]` [D-609 potassium], the “Z Score” value [3] was −0.8964, the Z score [5] was −0.896 and the Activity [6] was “no”.

In the case of `CN1CCN(CC/C=C2/c3ccccc3Sc3ccc(S(=O)(=O)N(C)C)cc32)CC1` [Thiothixene hydrochloride], the Activity is reported as “no”, the “Z Score” value (168 h, 3 µM) is reported as −1.899 and the Z score (168 h, 3 µM) is reported as −1.899.

With `C[C@H](CCC(=O)NCCS(=O)(=O)O)[C@H]1CC[C@H]2[C@@H]3[C@H](O)C[C@@H]4C[C@H](O)CC[C@]4(C)[C@H]3C[C@H](O)[C@]12C` [Sodium Taurocholate] the Activity was “no”, the “Z Score” value was −0.7604 and the Z score was −0.760.

For `NC[C@H](O)c1ccc(O)c(O)c1.O=C(O)C(O)C(O)C(=O)O` [(B1)-Norepinephrine (+)bitartrate], the “Z Score” value was 0.09903.

`CN(C)CCC=C1c2ccccc2COc2ccccc21` [Doxepin hydrochloride] was tested, and the “Z Score” value (168 h, 3 µM) was −1.012, the Z score (168 h, 3 µM) was −1.012 and the Activity [7] was “no”.

`CCCN(CCC)C(=O)Cc1c(-c2ccc(Cl)cc2)nc2c(Cl)cc(Cl)cn12` [CB34] was tested, and the “Z Score” value was −1.081, the Z score [8] was −1.081 and the Activity [4] was “no”.

In the case of `CCN(CC)CC(=O)Nc1c(C)cccc1C` [Lidocaine hydrochloride], the “Z Score” value [3] is reported as −0.1111, the Z score [1] is reported as −0.111 and the Activity [4] is reported as “no”.

`CCCCCC(O)CCCC(=O)O.[Na]` (stereo not drawn) [5-hydroxydecanoic acid sodium] was tested, and the “Z Score” value (168 h, 3 µM) was 0.2332, the Z score (168 h, 3 µM) was 0.233 and the Activity [4] was “no”.

For `C=CCn1c(=O)c2c(nc(-c3ccc(S(=O)(=O)O)cc3)n2C)n(C)c1=O` [1-Allyl-3,7-dimethyl-8-p-sulfophenylxanthine], the “Z Score” value [9] was −2.178, the Z score [5] was −2.178 and the Activity [6] was “no”.

For R(−)-N6-(2-Phenylisopropyl)adenosine, the “Z Score” value [9] was −2.023, the Z score [1] was −2.023 and the Activity [2] was “no”.

`CC(=O)O.CSC(=N)NCCC[C@H](N)C(=O)O` [S-Methyl-L-thiocitrulline acetate] was tested, and the “Z Score” value was −1.751, the Z score [1] was −1.751 and the Activity [10] was “no”.

For `Cn1cc(C2=C(c3ccc(Cl)cc3Cl)C(=O)NC2=O)c2ccccc21` [SB 216763], the “Z Score” value was −2.542, the Z score [1] was −2.542 and the Activity [10] was “yes”.

In the case of `CC(COc1ccc(/C=C/c2ccccc2)cc1)[N+](C)(C)C.[I-]` (stereo not drawn), the “Z Score” value is reported as −11.13.

With `Cc1ccccc1CNc1ncnc2c1ncn2[C@@H]1O[C@H](CO)[C@@H](O)[C@H]1O` [Metrifudil] the “Z Score” value [3] was −0.2123, the Z score [1] was −0.212 and the Activity [10] was “no”.

With `Br.Oc1cc2c(c(Cl)c1O)CCNCC2c1ccccc1` (stereo not drawn) [(B1)-6-Chloro-PB hydrobromide] the “Z Score” value was −2.267.

With `O=[N+]([O-])c1ccc(O[C@@H]2O[C@H](CO)[C@@H](O)[C@H](O)[C@H]2F)c([N+](=O)[O-])c1` [2,4-Dinitrophenyl 2-fluoro-2-deoxy-beta-D-glucopyranoside] the “Z Score” value [11] was 0.772, the Z score [8] was 0.772 and the Activity [4] was “no”.

With `CC(=O)NNC(=O)N1Cc2ccccc2Oc2ccc(Cl)cc21` [SC 19220] the “Z Score” value was −1.64, the Z score [1] was −1.640 and the Activity [2] was “no”.

In the case of `Cc1cnc(C(=O)NCCc2ccc(S(=O)(=O)NC(=O)NC3CCCCC3)cc2)cn1` [Glipizide], the Activity is reported as “no”, the “Z Score” value [3] is reported as −0.8295 and the Z score [1] is reported as −0.830.

In the case of `O=C(NCC1CCCCN1)c1cc(OCC(F)(F)F)ccc1OCC(F)(F)F` (stereo not drawn) [Flecainide acetate], the “Z Score” value [9] is reported as −1.498.

With NCS-356 the “Z Score” value was 2.833, the Z score [1] was 2.833 and the Activity [10] was “no”.

For `CCCn1c(=O)c2[nH]c(-c3ccc(S(=O)(=O)O)cc3)nc2n(CCC)c1=O` [1,3-Dipropyl-8-p-sulfophenylxanthine], the “Z Score” value was 4.743, the Z score was 4.743 and the Activity [6] was “no”.

`CNC(=O)[C@H]1O[C@@H](n2cnc3c(NCc4cccc(I)c4)nc(Cl)nc32)[C@H](O)[C@@H]1O` [Chloro-IB-MECA] was tested, and the “Z Score” value [3] was −0.8471, the Z score [8] was −0.847 and the Activity [4] was “no”.

With `CC[C@@H](CO)NC(=O)[C@@H]1C=C2c3cccc4[nH]cc(c34)C[C@H]2N(C)C1` [Methylergonovine maleate] the “Z Score” value was −0.7846, the Z score [1] was −0.785 and the Activity [10] was “no”.

With R(−)-Isoproterenol (+)-bitartrate the “Z Score” value [9] was −1.485, the Z score [1] was −1.485 and the Activity [4] was “no”.

For `CC(C)(C)NCC(O)c1ccccc1Cl` (stereo not drawn) [Tulobuterol hydrochloride], the “Z Score” value [9] was −1.767, the Z score [1] was −1.767 and the Activity [2] was “no”.

With `Br.Br.C=CCN1CCc2c(cc(O)c(O)c2Cl)C(c2ccccc2)C1` (racemic) [(±)-Chloro-APB dihydrobromide] the Z score [8] was −0.111 and the Activity [4] was “no”.

`O=c1onc2cnc3ccccc3n12` [ODQ] was tested, and the “Z Score” value was −0.5922, the Z score [1] was −0.592 and the Activity [2] was “no”.

With (−)-Perillic acid the “Z Score” value was −1.321.

With `O=C1CCC(N2C(=O)c3ccccc3C2=O)C(=O)N1` (racemic) [(±)-Thalidomide] the Z score [5] was 0.521 and the Activity [6] was “no”.

`O=C(NCCNCC(O)COc1ccc(O)cc1)N1CCOCC1` (stereo not drawn) [Xamoterol hemifumarate] was tested, and the “Z Score” value (168 h, 3 µM) was −0.1243, the Z score (168 h, 3 µM) was −0.124 and the Activity [6] was “no”.

With `CNCC(O)c1ccc(O)c(O)c1.Cl` (stereo not drawn) [(B1)-Epinephrine hydrochloride] the “Z Score” value [3] was −0.3279.

In the case of `CC(C)(C)c1ccc(S(=O)(=O)/C=C/C#N)cc1` [Bay 11-7085], the “Z Score” value is reported as 2.18, the Z score [8] is reported as 2.180 and the Activity [4] is reported as “no”.

For `CN(C)c1nc(N)c(C(=O)NC(=N)N)nc1Cl.Cl` [5-(N,N-Dimethyl)amiloride hydrochloride], the “Z Score” value was 2.396, the Z score [5] was 2.396 and the Activity [6] was “no”.

In the case of `CCn1cc(C(=O)O)c(=O)c2ccc(C)nc21` [Nalidixic acid sodium], the “Z Score” value is reported as −0.3145, the Z score [1] is reported as −0.314 and the Activity [10] is reported as “no”.

`COc1ccc(CCN(C)CCCC(C#N)(c2cc(OC)c(OC)c(OC)c2)C(C)C)cc1OC.Cl` (stereo not drawn) [(B1)-Methoxyverapamil hydrochloride] was tested, and the “Z Score” value was −1.407.

For `O=NN(CCCl)C(=O)NCCCl` [Carmustine], the “Z Score” value (LOPAC library screen at 3 μM, MTT, secondary neurosphere cultures, screened in singlets) was 2.191, the Z score [8] was 2.191 and the Activity [4] was “no”.

With `CNCCCC1c2ccccc2C=Cc2ccccc21` [Protriptyline hydrochloride] the “Z Score” value [11] was 0.7603, the Z score [1] was 0.760 and the Activity [2] was “no”.

`Cl.O=c1[nH]oc2c1CCNC2` [THIP hydrochloride] was tested, and the “Z Score” value was 0.3613, the Z score [5] was 0.361 and the Activity [6] was “no”.

In the case of `CC(C)(Oc1ccc(C2CC2(Cl)Cl)cc1)C(=O)O` (stereo not drawn) [Ciprofibrate], the “Z Score” value [9] is reported as −1.326, the Z score [8] is reported as −1.326 and the Activity [4] is reported as “no”.

With `CCN1CCCC1CNC(=O)c1cc(S(N)(=O)=O)ccc1OC` (single isomer, unassigned; (-)) [(−)-Sulpiride] the “Z Score” value [9] was −2.647, the Z score [1] was −2.647 and the Activity [7] was “yes”.

In the case of `CCc1c(C(=O)OC)ncc2[nH]c3cc(OC)c(OC)cc3c12` [Methyl 6,7-dimethoxy-4-ethyl-beta-carboline-3-carboxylate], the “Z Score” value is reported as −1.326, the Z score [1] is reported as −1.326 and the Activity [4] is reported as “no”.

(−)-Cotinine was tested, and the “Z Score” value [3] was −0.5099, the Z score [8] was −0.510 and the Activity [4] was “no”.

`Nc1ccc(N2C(=O)c3ccccc3C2=O)c(Cl)c1` [L-655,708] was tested, and the “Z Score” value was −0.6132, the Z score [1] was −0.613 and the Activity [4] was “no”.

`CC(C)Cc1ccc(C(C)C(=O)O)cc1` (racemic) [(±)-Ibuprofen] was tested, and the Z score [1] was −0.262 and the Activity [4] was “no”.

`NS(=O)(=O)c1cc2c(cc1Cl)N=CNS2(=O)=O` [Chlorothiazide] was tested, and the “Z Score” value [9] was −3.165, the Z score [1] was −3.165 and the Activity [10] was “yes”.

For `COc1ccc(CCN(C)CCCC(C#N)(c2cc(OC)c(OC)c(OC)c2)C(C)C)cc1OC.Cl` (racemic) [(±)-Methoxyverapamil hydrochloride], the Z score [1] was −1.407 and the Activity [10] was “no”.

Dextrorphan D-tartrate was tested, and the Activity was “no”, the “Z Score” value was 1.569 and the Z score was 1.569.

With `Nc1ncnc2c1ncn2[C@@H]1O[C@H](C(=O)NC2CC2)[C@@H](O)[C@H]1O` [5′-(N-Cyclopropyl)carboxamidoadenosine] the “Z Score” value was −1.701, the Z score [8] was −1.701 and the Activity [4] was “no”.

`CN(C)C(=O)Oc1cccc([N+](C)(C)C)c1` [Neostigmine bromide] was tested, and the “Z Score” value was 1.228, the Z score [1] was 1.228 and the Activity [10] was “no”.

With `CN1CC[C@]2(CCN3CCc4c(oc5ccccc45)[C@@H]3C2)N(C)C1=O.Cl` [MK-912] the “Z Score” value was −0.582, the Z score [1] was −0.582 and the Activity [10] was “no”.

For `C=CCN1CC[C@]23c4c5ccc(O)c4O[C@H]2C(=O)CC[C@@]3(O)[C@H]1C5` [Naloxone hydrochloride], the “Z Score” value [9] was −10.14, the Z score [1] was −10.137 and the Activity [7] was “yes”.

With `CNCC(O)c1ccc(O)cc1` (stereo not drawn) [(B1)-Synephrine] the “Z Score” value was −0.1488.

`C=C[C@@]1(C)CC(=O)[C@]2(O)[C@@]3(C)[C@@H](O)CCC(C)(C)[C@@H]3[C@H](O)[C@H](OC(C)=O)[C@@]2(C)O1` [Forskolin] was tested, and the “Z Score” value [9] was −1.331 and the Z score [1] was −1.331.
